This series is described as follows: solvent given as SMILES.

Each structure is given as a SMILES string.

Where the note is “in Cc1ccccc1”, `O=C(c1ccc(-n2c3ccc(-c4ccccc4)cc3c3cc(-c4ccccc4)ccc32)cc1)c1ccc(-n2c3ccc(-c4ccccc4)cc3c3cc(-c4ccccc4)ccc32)cc1` registered an emission maximum of 438 nm.

`CCCCCCc1ccc(-n2c3[n+](c4c5ccccc5c5ccccc5c42)[B-](C)(C)c2ccccc2-3)cc1`: the emission maximum came to 384 nm (in C1CCOC1), 385 nm (in CC#N), 385 nm (in Cc1ccccc1) and 385 nm (in ClCCl).

For `c1ccc(-c2nc(-c3ccc(-n4c5ccccc5c5ccc6c(c7ccccc7n6-c6ccccc6)c54)cc3)c3sc4ccccc4c3n2)cc1`, the emission maximum (in Cc1ccccc1) is recorded as 465.01 nm.

Turning to `CCN(CC)c1ccc2cc(C#N)/c(=N\C(C)=O)oc2c1`, the emission maximum runs as follows: (in CCO) 462 nm; (in ClCCl) 460 nm.

`COc1cc(N(c2ccccc2)c2ccc(C=C(C#N)C#N)c(OC)c2)ccc1C=C(C#N)C#N`: the emission maximum is recorded as 520 nm (in C1COCCO1); 571 nm (in CC#N); 562 nm (in CC(C)=O); 532 nm (in CCOC(C)=O); 576 nm (in CN(C)C=O); 558 nm (in CO). This compound registered an emission maximum (in Cc1ccccc1) of 500 nm, an emission maximum (in ClC(Cl)Cl) of 524 nm and an emission maximum (in ClCCl) of 534 nm.

Consider `Cc1ccc(-n2cccc2)cc1`, for which the emission maximum came to 312 nm (in CC#N) and 310 nm (in CCCCCC).

`COc1ccc(-c2cc3c(o2)=CC2=C(C(F)(F)F)c4cc5oc(-c6ccc(OC)cc6)cc5n4[B-](F)(F)[N+]=32)cc1` had an emission maximum (in ClC(Cl)Cl) of 738 nm.

Take `CCN(CC)c1ccc2cc3c([o+]c2c1)/C(=C/Nc1ccccc1)CCC3`: the emission maximum by setting is: (in CCO) 647 nm; (in ClC(Cl)Cl) 642 nm; (in ClCCl) 647 nm.

Regarding `CC(C)[Si]1(C(C)C)c2cc(C=O)ccc2-c2ccc(N(C)C)cc21`, the emission maximum is, setting by setting: (in C1CCCCC1) 414 nm; (in CC#N) 528 nm; (in CCO) 565 nm; (in CCOCC) 449 nm; (in CS(C)=O) 541 nm; (in ClCCl) 501 nm. In addition, the emission maximum (in c1ccccc1) turned out to be 450 nm.

In turn, `COc1c2ccccc2c(OC)c2c(C#CC(C)(C)C)c3cc4ccccc4cc3c(C#CC(C)(C)C)c12` came in with an emission maximum (in ClCCl) of 682 nm.

As to `FC(F)(F)C(F)(F)C(F)(F)C(F)(F)C(F)(F)C(F)(F)CCOc1nnc(Cl)nn1`, the emission maximum reads like this: (in ClCCl) 566 nm; (in OCC(F)(F)F) 555 nm.

As for `Cc1cc(C)c(B2c3cc(C(C)(C)C)ccc3-c3cc4ccccc4c4cc(C(C)(C)C)cc2c34)c(C)c1`, where the note is “in C1CCCCC1”, the emission maximum was determined as 420 nm.

Compound `COC(=O)c1ccc2ccc3cccc4ccc1c2c34` yielded an emission maximum (in C1CCOC1) of 388 nm; an emission maximum (in CC#N) of 389 nm; an emission maximum (in CCCCCC) of 385 nm; an emission maximum (in CCO) of 391 nm; an emission maximum (in CN(C)C=O) of 391 nm; an emission maximum (in CO) of 392 nm. The emission maximum reads like this: (in Cc1ccccc1) 390 nm; (in ClCCl) 390 nm.

For `F[B-]1(F)Oc2c(-c3cccc4c3O[B-](F)(F)[n+]3c(-c5ccccc5)c(-c5ccccc5)n(-c5ccc(C(F)(F)F)cc5)c3-4)cccc2-c2n(-c3ccc(C(F)(F)F)cc3)c(-c3ccccc3)c(-c3ccccc3)[n+]21`, where the note is “in C1CCOC1”, the emission maximum is 399 nm.

Regarding `CC(C)[Si](C#Cc1c2cc3ccccc3cc2c(C#C[Si](C(C)C)(C(C)C)C(C)C)c2nc3c(ccc4cc5ccccc5cc43)nc12)(C(C)C)C(C)C`, the emission maximum (in CCCCCC) is recorded as 654 nm.

On to `C/C=C/c1ccc(OC)cc1`, for which the emission maximum runs as follows: (in CC#N) 330 nm; (in CCCCCC) 328 nm.

With `CN(C)c1cc(C#N)c(N(C)C)c(C#N)c1`, the emission maximum is, setting by setting: (in C1CCCCC1) 495.79 nm; (in C1CCOC1) 518.13 nm; (in C1COCCO1) 521.65 nm; (in CC1COC(=O)O1) 532.48 nm; (in CC#N) 529.94 nm; (in CC(C)=O) 524.93 nm. The emission maximum turned out to be 503.02 nm (in CC(C)OC(C)C); 525.76 nm (in CCC#N); 493.58 nm (in CCC(C)C); 493.83 nm (in CCCCCC); 523.29 nm (in CCCCCCCCO); 505.82 nm (in CCCCCOCCCCC). Further, the emission maximum reads like this: (in CCCCOC(C)=O) 516.8 nm; (in CCCCOCCCC) 502.26 nm; (in CCCOCCC) 507.61 nm; (in CCO) 528.26 nm; (in CCOC(C)=O) 519.21 nm; (in CCOCC) 507.36 nm. Besides, the emission maximum stood at 533.9 nm (in CN(C)C=O); 530.5 nm (in CO); 538.21 nm (in CS(C)=O); 516.8 nm (in Cc1ccccc1); 523.56 nm (in ClCCCl); 522.74 nm (in ClCCl). The emission maximum by setting is: (in N#Cc1ccccc1) 529.1 nm; (in O) 555.25 nm; (in OCC(O)CO) 547.35 nm; (in c1ccccc1) 519.48 nm.

The compound `CCCCC1(CCCC)c2cc(C#Cc3ccc(C=C4c5ccccc5-c5ccccc54)cc3)ccc2-c2ccc(C#Cc3ccc(C=C4c5ccccc5-c5ccccc54)cc3)cc21` yielded an emission maximum (in C1CCOC1) of 406 nm.

For the compound `CC1(C)C(/C=C/C2=C(Cl)C(=C/C=C3/N(Cc4ccc(C(=O)O)cc4)c4ccccc4C3(C)C)/CCC2)=[N+](Cc2ccc(C(=O)O)cc2)c2ccccc21`, the emission maximum (in CO) was determined as 814 nm.

With `CCCCN(CCCC)c1ccc2c#cc3cc4c#cc5ccc(C(F)(F)F)cc5c#cc#cc5cc(N(CCCC)CCCC)ccc5c#cc4cc3c#cc3ccc(C(F)(F)F)cc3c#cc#cc2c1`, the emission maximum runs as follows: (in ClCCl) 555 nm; (in c1ccccc1) 521 nm.

In turn, `C1=C(c2ccccc2)[Si](c2ccccc2)(c2ccccc2)c2ccccc21` displayed an emission maximum (in ClCCl) of 400 nm.

As for `COc1cc(-c2nc3c4cccnc4c4ncccc4c3[nH]2)c(OC)cc1/C=C/c1nc2ccccc2[nH]1`, the emission maximum is reported as 443 nm (in C1CCOC1), 457 nm (in CC#N), 461 nm (in CO) and 452 nm (in ClCCl).

Turning to `F[Si-](F)(c1ccccc1)(c1ccccc1)c1cccc2ccccc12`, the emission maximum (in C1CCOC1) is recorded as 338 nm.

For `CCOC(=O)/N=c1/oc2cc(OC)ccc2cc1C#N`, the emission maximum (in ClCCl) came to 434 nm.

Take `COc1cc2sc3cc(OC)c(F)cc3c(=O)c2cc1F`: the emission maximum (in CS(C)=O) is given as 416 nm.

In turn, `CN(C)c1ccc(-c2ccc(-c3ncc4ccccn34)cc2)cc1` gave an emission maximum (in ClC(Cl)Cl) of 488 nm.

Consider `O=c1c2cc(C#Cc3ccccc3)ccc2nc2ccc(C#Cc3ccccc3)cn12`, for which the emission maximum (in ClCCl) was 478 nm.

Where the note is “in ClC(Cl)Cl”, `CCCCCCc1ccc(-n2c3c4cccc(OC)c4nc(-c4ccc(OC)cc4)c3c3c2c2c(-c4ccc(OC)cc4)nc4c(OC)cccc4c2n3-c2ccc(CCCCCC)cc2)cc1` gave an emission maximum of 453 nm.

`c1cc2c3c(c1)-c1cccc4cccc(c14)B3c1cccc3cccc-2c13` displayed an emission maximum (in Cc1ccccc1) of 491 nm.

As for `c1ccc(-c2ccc(-c3ccc(-c4ccccc4)cc3)cc2)cc1`, the emission maximum (in C1CCOC1) came out at 368 nm and the emission maximum (in C1COCCO1) is given as 369 nm.

The values above are taken from the Deep4Chem optical property database.
